Consider nine molecules from US20130324595A1, “C-GLUCOSIDIC ELLAGITANNIN COMPOUNDS FOR USE FOR ALTERING THE SUPRAMOLECULAR ARRANGEMENT OF ACTIN AND FOR THE TREATMENT OF OSTEOPOROSIS, CANCER, BACTERIAL INFECTION AND VIRAL INFECTION” (priority 2011, published 2013).

For one data set, the system named is microtubule network. Kind of data set: alteration of the microtubule network in treated cells. It counts as cell-based.
For data set [1], the system named is actin cytoskeleton in bovine aortic endothelial cells (BAEc). Kind of data set: effect on the actin cytoskeleton (stress fibers) in living BAEc. It counts as cell-based. The source says:
The inventors' initial interest in studying these C-glucosidic ellagitannins stems from the premise that the highly pre-organized medium-sized ring-containing multiple-phenol array featured by such natural products should be structurally well-suited to interfere with the construction of protein-made cellular architectures, on top of the list of which are actin filaments and microtubules. The inventors thus decided to probe the latter hypothesis by first examining the effect of a selection of four C-glucosidic ellagitannins on the actin cytoskeleton in living cells. […] The selected compounds were the two most abundant C-glucosidic ellagitannins found in the heartwood of oak species, vescalagin and its C-1 epimer castalagin, and their corresponding two minor congeners, vescalin and castalin, both lacking the hexahydroxydiphenoyl (HHDP) unit at positions 4 and 6 of the glucose core (FIG. 1). The inventors used bovine aortic endothelial cells (BAEc), a well-characterized type of primary cells. Any of the four ellagitannins used at 50 μM rapidly provoked the disappearance of the internal stress fiber network observed in control cells.

In data set [2] the test system is F-actin. Kind of data set: in vitro actin polymerization, high-speed centrifugation, stained pellet. It counts as binding. As to conditions: 30 min at steady state. The method, then: (§1) FIG. 4. A. Actin polymerization at its steady state in both permissive and non-permissive conditions was continued (30 min) in the presence of either alexa633-phalloidin or vescalagin-FITC. […] B. This effect is dose-dependent. C.
To explore whether or not the interaction between vescalagin and actin was direct, the inventors set up an in vitro assay based on actin polymerization from a solution of Ca^2+-actin-ATP monomers. Spontaneous polymerization occurs when Ca^2+ is replaced by Mg^2+ provided by the F-actin buffer. The inventors performed high-speed centrifugation of the samples to separate the neo-formed polymers from the monomers to discriminate binding of vescalagin to either F-actin, G-actin or both. To visualize these presumptive molecular associations, the inventors used again the vescalagin-bearing fluoprobe and a fluorescent Alexa633-phalloidin to stain F-actin. Actin polymerization was carried out until it reached its steady state in both permissive and non-permissive conditions (i.e., in the presence or absence of Mg^2+-containing F-buffer). The experiment was then continued for 30 min in the presence of either vescalagin-FITC conjugate or Alexa633-phalloidin, and the formation of actin polymers was then assessed by high-speed centrifugation.

Data set [3] concerns osteoclast. The settings on record: cited from earlier work.
For the next data set, the system named is actin-GFP in BAEc. Kind of data set: live imaging and FRAP on actin-GFP expressing BAEc. The settings on record: 100 μM. It counts as cell-based, bovine. The method, then:
FIG. 2. Live imaging of BAEc expressing actin-GFP were subjected to FRAP in the absence or presence of vescalagin (100 μM). A. A boxed region (200×100 pixel square) was photobleached [before (t 0″), immediately after (t 38″) and after photobleaching (t 98″)]; and normalized fluorescence intensity in the boxed region is shown for the entire duration of the FRAP experiment. […] B. Quantitation of the results showing the immobile fraction as calculated from the difference between pre- and post-photobleaching intensities (n=6).
Destabilization of the stress fibers was visualised by the progressive loss of filamentous staining, concomitantly with cell retraction as observed in phase contrast. Noticeably, thick F-actin bundles were maintained. To detect and unveil the internal dynamics of these apparently immobile F-actin bundles, the inventors performed a fluorescence recovery after photobleaching (FRAP) assay on actin-GFP expressing BAEc in the absence or presence of vescalagin (FIG. 2). […] From these experiments, the inventors conclude that vescalagin affects both thin and thick actin fibers, F-actin bundles made of packed actin filaments being less vulnerable to the action of vescalagin than the single filament dendritic meshwork at the cell periphery.

Data set [4] relates to BAEc. In words: propidium iodide (PI) staining, cytotoxicity. As to conditions: for cytotoxicity by PI staining: 50 μM. It counts as cell-based, bovine. The source says: (§2) Vescalagin-induced dissolution of stress fibers affected cellular morphology and, eventually, viability. […] Functional consequences on cell behavior translated into impaired endothelial cell wound repair capacity. […] Overall, this ensemble of experimental data illustrates the rapid and sustained effects of vescalagin on cell behavior.

In data set [5] the test system is podosomes in bovine aortic endothelial cells (BAEc). Kind of data set: podosome formation in TGF-β stimulated BAEc. As to conditions: for inhibition of podosome formation: compound added from the beginning of the TGF-β stimulation (24 h) versus last hour. It counts as cell-based. The protocol:
FIG. 7. Dose responses of endothelial cells following vescalagin or vescalin treatment. BAEc were incubated for 24 hours with TGF-β (which stimulates formation of podosomes), and different concentrations of vescalagin or vescalin were added either from the beginning of the TGF-β stimulation, or during the last hour of stimulation. Cells were then fixed and treated for immunofluorescence analysis. Podosomes were visualized by double staining using phalloidin (a F-actin marker) and cortactin (a podosome marker). The percentage of total cells showing podosomes was then quantified and compared to the control (cells incubated with TGF-β only). A. BAEc were stimulated for 24 hours with TGF-β, and vescalagin or vescalin was added during the last hour of stimulation. B. BAEc were stimulated for 24 hours with TGF-β, and vescalagin or vescalin was added from the beginning of the TGF-β stimulation.
In this assay, bovine aortic endothelial cells (BAEc) were used. These cells form podosomes following a few hours of incubation with TGF-β. Cells were fixed after 24 hours of stimulation. Two protocols were tested. In the first protocol, cells were stimulated for 24 hours with TGF-β, and vescalagin or vescalin was added during the last hour of stimulation (FIG. 7A). In the second protocol, cells were stimulated for 24 hours with TGF-β, and vescalagin or vescalin was added from the beginning of the TGF-β stimulation (FIG. 7B). In both cases, cells were then fixed and treated for immunofluorescence analysis. Podosomes were visualized by double staining using phalloidin (a F-actin marker) and cortactin (a podosome marker). The percentage of total cells showing podosomes was then quantified and compared to the control (cells incubated with TGF-β only) (FIGS. 7A and 7B).

Data set [6] concerns F-actin. Kind of data set: phalloidin binding to vescalagin-decorated F-actin (binding site).
Data set [7] relates to BAEc. Kind of data set: cellular morphology and mitosis, light microscopy. It counts as cell-based, bovine.
Text: as §2

Another data set deals with actin cytoskeleton. Kind of data set: reversibility of cytoskeletal alterations by washing out. It counts as cell-based. From the text: The vescalagin-induced F-actin disrupting effect seen in BAEc was also observed in fibroblast cells (baby hamster kidney cells, BHK), which also express β-actin as the main actin isoform, as well as in smooth muscle cells (A7r5), which in contrast predominantly express α-actin.
It rapidly enters cells, and this despite its high hydrophilicity. Its dose-dependent effects on the actin cytoskeleton relies on its interaction with F-actin without any perturbation of the microtubule network. […] The results found by the inventors are consistent with a mode of action through which the binding of vescalagin occurs along the length of the actin filament, probably at the protein-protein interface of the so-polymerized actin supramolecular association. The presence of two analogous polyhydroxylated arene motifs (i.e., the NHTP and HHDP units, see FIG. 1) likely constitutes the key structural feature that enables vescalagin to wind F-actin into balls by engaging it through multiple intra- and/or intermolecular contacts. […] Future studies will be devoted to the elucidation of the vescalagin-actin interaction at the molecular level and to the comparative evaluation of the anti-actin effects of the other C-glucosidic ellagitannins initially screened herein. Moreover, the SPR method the inventors developed using a biotinylated vescalagin conjugate to discriminate the binding of vescalagin to F- versus G-actin confirms the value of the technique for the study of polyphenol-protein interactions. Finally, the inventors have to recall that oak-derived C-glucosidic ellagitannins, including vescalagin, are present in wines as a result of their aging in oak-made barrels.

Data set [8] concerns mechanically injured endothelium. In words: endothelial cell wound repair. It counts as cell-based, bovine.
Text: as §2

A further data set concerns actin (G-actin/F-actin). Kind of data set: in vitro actin polymerization, F-actin (pellet) versus G-actin (supernatant) at steady state. It counts as biochemical. The settings on record: for G-actin/F-actin ratio at steady state: vescalagin 100 μM, cytochalasin D 4 μM, phalloidin 2 μM. The protocol: as §1
In the same way, quantifying the amount of F-actin (pellet) versus that of G-actin (supernatant) at the steady state was achieved by Western blot after high-speed centrifugation of samples treated with either vescalagin (100 μM), cytochalasin D (4 μM) or phalloidin (2 μM). […] The same effect was observed when using the vescalagin-FITC conjugate (FIG. 4C).

In data set [9] the test system is osteoclast. The settings on record: cited from earlier work. This is another data set of the same source.
Another data set deals with bone resorption. The settings on record: by inhibiting calcium release; cited from earlier work.

Entries after “also recorded” stand apart in the source; their conditions may differ. *1 amine or outer side, *2 acyl side, *3 side chain or, on linkers, in order; H or OH if unused. Where a SMILES comes first, the peptide text is derived from it. Bridges are numbered along the chain shown (N, C = ends). [ ]: non-standard residue; d: D form. Trp(2-yl) = O=C([C@H](Cc1c([*:3])[nH]c2ccccc12)N[*:1])[*:2]; Leu(4R-OH,5-OH) = C[C@](O)(CO)C[C@H](N)C(=O)O; cisHyp = O=C(O)[C@@H]1C[C@H](O)CN1

Turning to `C=C1[C@@H](C)[C@H]2[C@H](Cc3ccccc3)NC(=O)[C@]23[C@H](OC(C)=O)/C=C/[C@@](C)(O)C(=O)[C@@H](C)C/C=C/[C@H]3[C@@H]1O` [cytochalasin D, reference compound], the “alteration of the microtubule network” value with microtubule network was “no alteration of the microtubule network”. In data set [1] (BAEc, cytochalasin D comparison), the “effect on actin configuration (stress fibers)” value is listed as “also effective”.
fluorescein isothiocyanate [FITC]: in the data set on F-actin [2], the “binding to F-actin (stained pellet after high-speed centrifugation)” value was “no F-actin was detected”.
With `O=C1O[C@H]2[C@H](O)[C@@H](OC(=O)c3cc(O)c(O)c4c3[C@@H]3C1=CC(=O)C(O)(O)C3(O)O4)[C@H](OC(=O)c1cc(O)c(O)c(O)c1)O[C@@H]2CO` (stereo partly shown) [furosin], the “osteoclast differentiation and function” value in the data set on osteoclast [3] is reported as “inhibitory effect”.
As for `O=C1OCC2OC(=O)c3cc(O)c(O)c(O)c3-c3c(O)c(O)c(O)c4c3C(=O)OC(C2OC(=O)c2cc(O)c(O)c(O)c2-c2c1cc(O)c(O)c2O)C1OC(=O)c2c-4c(O)c(O)c(O)c2C1O` (stereo not shown) [vescalagin], the “actin-GFP distribution, live imaging” value in the data set with actin-GFP in BAEc is on record as “immediate alteration of actin-GFP distribution at cell margin”. Moreover, in the data set with actin-GFP in BAEc (n=6), the “immobile fraction of actin (FRAP)” value is given as “increases the immobile fraction of actin”. Further, the “cytotoxicity by PI staining” value in the data set on BAEc [4] (6 h) and with BAEc [4] (24 h) was “no cytotoxicity” each time. Further, in the data set on BAEc [4] (100 μM, 24 h), the “cell death (apoptotic nuclei)” value is “irreversible commitment to cell death; also recorded: presence of apoptotic nuclei”. Further, the “inhibition of podosome formation (percentage of cells showing podosomes)” value in data set [5] (24 h TGF-β, vescalagin versus vescalin) is “stronger inhibitor activity than vescalin”. In data set [5], the “inhibition of podosome formation” value is on record as “less pronounced effects”. Moreover, the “alteration of the microtubule network” value in the data set with microtubule network is “no alteration of the microtubule network”. Moreover, the “relative activity within the series evaluated” value in [1] (four C-glucosidic ellagitannins) is given as “most active compound of the series”. For the same molecule, the “binding site on F-actin relative to phalloidin” value in the data set with F-actin [6] is listed as “does not bind at the same site(s) as phalloidin”. Besides, the mitosis result with BAEc [7] (50 μM) is given as “still observed”; in the data set on BAEc [7] (100 μM), “impaired”. Also, the cell morphology entry in the data set with BAEc [7] (range of concentrations and incubation times applied) is “changed their morphology from a well spread to a more retracted appearance”. Moreover, the “reversibility of actin cytoskeleton alterations by washing” value in the data set on actin cytoskeleton (treatment 1 hour, 100 μM) is recorded as “reversible by washing”; in the data set on actin cytoskeleton (treatment 24 hours, 50 μM), “reversible by washing”. The “reversal of cytoskeletal alterations by washing out with fresh medium” value with actin cytoskeleton (within 1 h) is listed as “completely reversed”. Further, the “reversibility of effects on the actin cytoskeleton” value with actin cytoskeleton (within 1 h of treatment, up to 100 μM) was “fully reversible”. For the same molecule, the “serum-stimulated healing of mechanically injured endothelium” value in data set [8] (20 μM) is listed as “reduced by about half”. In addition, in data set [8] (100 μM, 6 h), the cell viability result is “still compatible with the maintenance of cell viability”. Moreover, the “repopulation of the denudated area” value in data set [8] (100 μM, 6 h) was “remained virtually unpopulated”. Further, the “dose dependence of the G-actin depletion” value with actin (G-actin/F-actin) is on record as “dose-dependent manner”. Moreover, the “G-actin/F-actin ratio at steady state” value with actin (G-actin/F-actin) is given as “marked depletion of G-actin”.
For `O=C1O[C@H](CO)[C@@H](O)[C@@H]2OC(=O)c3c(c(O)c(O)c(O)c3-c3c(O)c(O)c(O)c4c3C(=O)O[C@H]2[C@@H]4O)-c2c1cc(O)c(O)c2O` [vescalin], the “inhibition of podosome formation” value in data set [5] was “less pronounced effects”.
roburin D: the “inhibition of osteoclast differentiation and function” value in the data set with osteoclast [9] was “highest potency”.
For `C[C@@H]1NC(=O)[C@H](C[C@@](C)(O)CO)NC(=O)[C@@H]2Cc3c([nH]c4ccccc34)SC[C@H](NC(=O)[C@@H]([C@H](C)O)NC1=O)C(=O)N1C[C@@H](O)C[C@H]1C(=O)N[C@@H](C)C(=O)N2` [phalloidin, reference compound] (cyclo(A[dT]C[cisHyp]A[Trp(2-yl)][Leu(4R-OH,5-OH)]); thioether 3-6), the “G-actin/F-actin ratio at steady state” value in the data set on actin (G-actin/F-actin) is on record as “marked depletion of G-actin”.
As to `O=C(OC1C(OC(=O)c2cc(O)c(O)c(O)c2Oc2cc3c(c(O)c2O)-c2c(cc(O)c(O)c2O)C(=O)OC(C2OC(=O)c4cc(O)c(O)c(O)c4-c4c(cc(O)c(O)c4O)C(=O)OCC2O)C(C(O)c2c(O)cc4c(c2O)CC(O)C(c2ccc(O)c(O)c2)O4)OC3=O)C(O)OC2COC(=O)c3cc(O)c(O)c(O)c3-c3c(cc(O)c(O)c3O)C(=O)OC21)c1cc(O)c(O)c(O)c1` (stereo not shown) [camelliatannin D], the bone resorption entry with bone resorption is listed as “potentially inhibits bone resorption”.
Turning to roburin C, the “inhibition of osteoclast differentiation and function” value with osteoclast [9] is listed as “highest potency”.
